The values below come from US20180099931A1 (AbbVie S.à.r.l., priority 2016, published 2018).

Where two headings read alike, the source gives them in different places.

This assay deals with T1, F508delCFTR (Homo sapiens, UniProt P13569, DEL508-508).
T1 construct: expressed in transfected cells; host or cells: CFBE41o- human lung-derived epithelial cells (CFBE4lo-F508delCFTR-HRP), doxycycline-inducible
The assay can be described thus: Cell Surface Expression-Horse Radish Peroxidase (CSE-HRP) Assay.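 On Maximum % activity (with co-corrector): co-corrector and positive control are both the same reference corrector at 2 µM.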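 On Maximum % activity (without co-corrector): percent of the 2 µM on-plate positive control corrector response above DMSO.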 The assay is classed as cell-based. The conditions noted are these: for Maximum % activity (with co-corrector): with co-corrector (2 μM); for Maximum % activity (with co-corrector) / Emax: maximum at any tested concentration, normalized to on-plate positive control; for Emax: without co-corrector, read-out: Maximum % activity (without co-corrector).

The mark [1] stands for this setting: test compound without co-corrector, read-out: EC50 (without co-corrector).
[2] abbreviates: with co-corrector (2 μM of 3-[(2R,4R)-4-({[1-(2,2-difluoro-1,3-benzodioxol-5-yl)cyclopropyl]carbonyl}amino)-7-methoxy-3,4-dihydro-2H-chromen-2-yl]benzoic acid), read-out: EC50 (with co-corrector).

T1 sequence (P13569 with tags, fused parts or gaps DEL508-508): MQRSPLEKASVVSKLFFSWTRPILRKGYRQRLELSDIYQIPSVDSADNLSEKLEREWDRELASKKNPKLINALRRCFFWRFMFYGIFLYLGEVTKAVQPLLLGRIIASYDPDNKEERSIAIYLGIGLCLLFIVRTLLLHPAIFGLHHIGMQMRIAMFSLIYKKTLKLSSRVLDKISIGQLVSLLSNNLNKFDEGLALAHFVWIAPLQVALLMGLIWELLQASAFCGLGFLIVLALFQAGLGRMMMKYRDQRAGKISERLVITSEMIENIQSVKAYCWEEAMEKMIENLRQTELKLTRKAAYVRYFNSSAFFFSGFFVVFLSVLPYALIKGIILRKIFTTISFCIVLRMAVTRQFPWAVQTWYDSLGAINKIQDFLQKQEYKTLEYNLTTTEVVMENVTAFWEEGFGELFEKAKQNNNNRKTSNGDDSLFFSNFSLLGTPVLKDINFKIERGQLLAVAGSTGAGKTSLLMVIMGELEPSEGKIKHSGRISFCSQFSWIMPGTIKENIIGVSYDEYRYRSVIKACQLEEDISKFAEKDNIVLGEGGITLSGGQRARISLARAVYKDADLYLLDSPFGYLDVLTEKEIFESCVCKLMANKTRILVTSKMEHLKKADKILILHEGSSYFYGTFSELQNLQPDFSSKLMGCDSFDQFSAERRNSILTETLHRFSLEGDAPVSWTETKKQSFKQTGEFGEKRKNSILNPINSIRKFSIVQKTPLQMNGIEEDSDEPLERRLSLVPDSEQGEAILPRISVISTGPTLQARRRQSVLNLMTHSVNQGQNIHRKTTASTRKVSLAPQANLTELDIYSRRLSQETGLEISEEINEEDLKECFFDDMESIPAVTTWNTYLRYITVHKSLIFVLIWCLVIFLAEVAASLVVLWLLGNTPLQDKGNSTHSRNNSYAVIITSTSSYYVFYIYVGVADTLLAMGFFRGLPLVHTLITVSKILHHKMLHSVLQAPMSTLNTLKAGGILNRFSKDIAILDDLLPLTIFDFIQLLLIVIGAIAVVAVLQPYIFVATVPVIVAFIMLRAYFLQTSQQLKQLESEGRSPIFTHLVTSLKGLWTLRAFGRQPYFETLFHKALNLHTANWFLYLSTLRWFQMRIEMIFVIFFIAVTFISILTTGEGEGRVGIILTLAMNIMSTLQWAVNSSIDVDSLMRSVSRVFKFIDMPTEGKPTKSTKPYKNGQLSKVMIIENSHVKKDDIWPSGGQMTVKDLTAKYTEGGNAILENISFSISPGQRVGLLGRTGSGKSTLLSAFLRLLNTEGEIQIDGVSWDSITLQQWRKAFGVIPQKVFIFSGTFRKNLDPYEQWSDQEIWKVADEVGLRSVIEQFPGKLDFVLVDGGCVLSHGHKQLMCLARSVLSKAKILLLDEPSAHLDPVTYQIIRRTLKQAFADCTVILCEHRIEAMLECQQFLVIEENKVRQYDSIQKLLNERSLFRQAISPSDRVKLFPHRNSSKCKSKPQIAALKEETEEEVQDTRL

As a reminder, the EC50 is the concentration that produces a half-maximal response. On to `COc1nc(C(C)(C)C)ccc1CN[C@H]1[C@H](C(C)(C)C)[C@@H](C(=O)O)N(C(=O)[C@@H]2CCCCO2)[C@H]1c1ccccc1` [Example 38, (2S,3S,4S,5S)-3-tert-butyl-4-{[(6-tert-butyl-2-methoxypyridin-3-yl)methyl]amino}-1-[(2S)-oxane-2-carbonyl]-5-phenylpyrrolidine-2-carboxylic acid], for which the “Maximum % activity (with co-corrector)” value was “+++ (≥350)” and the Emax was greater than 200%. For the same compound, the EC50 under setting [1] was in the range of 1 to 10 µM. The EC50 under setting [2] was less than 1 µM.

Take `COc1nc(C(C)(C)C)ccc1CN[C@H]1[C@H](C(C)(C)C)[C@@H](C(=O)O)N(C(=O)[C@H]2CCCCO2)[C@H]1c1ccccc1` [Example 39, (2S,3S,4S,5S)-3-tert-butyl-4-{[(6-tert-butyl-2-methoxypyridin-3-yl)methyl]amino}-1-[(2R)-oxane-2-carbonyl]-5-phenylpyrrolidine-2-carboxylic acid]: the “Maximum % activity (with co-corrector)” value is “+++ (≥350)” and the Emax lay in the range of 100 to 200%. The EC50 under setting [1] was 1 to 10 µM. Moreover, under setting [2], the concentration for a half-maximal effect (EC50) fell in the range of 1 to 10 µM.

On to `COc1ccc(C(C)(C)C)cc1CN[C@H]1[C@H](C(C)(C)OC)[C@@H](C(=O)O)N(C(=O)C2CCCCC2)[C@H]1c1cccnc1OC` [Example 40, (2S,3S,4S,5S)-4-{[(5-tert-butyl-2-methoxyphenyl)methyl]amino}-1-(cyclohexanecarbonyl)-3-(2-methoxypropan-2-yl)-5-(2-methoxypyridin-3-yl)pyrrolidine-2-carboxylic acid], for which the “Maximum % activity (with co-corrector)” value is given as “+++ (≥350)” and the Emax is greater than 200%. Also, the EC50 under setting [1] fell in the range of 1 to 10 µM. Also, the EC50 under setting [2] lay within 1 to 10 µM.

As for `COc1ccc(C(C)(C)C)cc1CN[C@H]1[C@H](C(C)(C)OC)[C@@H](C(=O)O)N(C(=O)C2CCCCC2)[C@H]1c1cccnc1N(C)C` [Example 41, (2S,3S,4S,5S)-4-{[(5-tert-butyl-2-methoxyphenyl)methyl]amino}-1-(cyclohexanecarbonyl)-5-[2-(dimethylamino)pyridin-3-yl]-3-(2-methoxypropan-2-yl)pyrrolidine-2-carboxylic acid], the “Maximum % activity (with co-corrector)” value is given as “+++ (≥350)” and the Emax is greater than 200%. For the same compound, the EC50 under setting [1] is 1 to 10 µM. Moreover, the EC50 under setting [2] was less than 1 µM.

For the compound `COc1ccc(C(C)(C)C)cc1CN[C@H]1[C@H](C(C)(C)C)[C@@H](C(=O)O)N(C(=O)[C@H]2CCCCO2)[C@H]1c1ccccc1OC(F)F` [Example 45, (2S,3S,4S,5S)-3-tert-butyl-4-{[(5-tert-butyl-2-methoxyphenyl)methyl]amino}-5-[2-(difluoromethoxy)phenyl]-1-[(2R)-oxane-2-carbonyl]pyrrolidine-2-carboxylic acid], the “Maximum % activity (with co-corrector)” value is listed as “+++ (≥350)” and the Emax was in the range of 100 to 200%. In addition, under setting [1], the EC50 is 1 to 10 µM. Besides, under setting [2], the 50% effective concentration (EC50) fell in the range of 1 to 10 µM.

On to `COc1ccc(C(C)(C)C)cc1CN[C@H]1[C@H](C(C)(C)C)[C@@H](C(=O)O)N(C(=O)C2C3CCCC32)[C@H]1c1ccccc1` (stereo partly drawn) [Example 46, (2S,3S,4S,5S)-1-(bicyclo[3.1.0]hexane-6-carbonyl)-3-tert-butyl-4-{[(5-tert-butyl-2-methoxyphenyl)methyl]amino}-5-phenylpyrrolidine-2-carboxylic acid], for which the “Maximum % activity (with co-corrector)” value is given as “+++ (≥350)” and the Emax is greater than 200%. Further, the EC50 under setting [1] lay in the range of 1 to 10 µM. Also, the EC50 under setting [2] is less than 1 µM.

On to `COc1ncc([Si](C)(C)C)cc1CN[C@H]1[C@H](C(C)(C)C)[C@@H](C(=O)O)N(C(=O)C2CCCCC2)[C@H]1c1ccccc1` [Example 47, (2S,3S,4S,5S)-3-tert-butyl-1-(cyclohexanecarbonyl)-4-({[2-methoxy-5-(trimethylsilyl)pyridin-3-yl]methyl}amino)-5-phenylpyrrolidine-2-carboxylic acid], for which the EC50 reads like this: under setting [1], less than 1 µM; under setting [2], less than 1 µM.

As for `COc1cnc(C(C)(C)C)cc1CN[C@H]1[C@H](C(C)(C)C)[C@@H](C(=O)O)N(C(=O)C2CCCCC2)[C@H]1c1ccccc1` [Example 48, (2S,3S,4S,5S)-3-tert-butyl-4-{[(2-tert-butyl-5-methoxypyridin-4-yl)methyl]amino}-1-(cyclohexanecarbonyl)-5-phenylpyrrolidine-2-carboxylic acid], the “Maximum % activity (with co-corrector)” value was “+++ (≥350)” and the Emax is 100 to 200%. Also, the EC50 under setting [1] was in the range of 1 to 10 µM. Further, under setting [2], the EC50 fell in the range of 1 to 10 µM.

With `COc1ncc(C(F)(F)F)cc1CN[C@H]1[C@H](C(C)(C)C)[C@@H](C(=O)O)N(C(=O)[C@@H]2CCCC(F)(F)C2)[C@H]1c1ccccc1` [Example 49, (2S,3S,4S,5S)-3-tert-butyl-1-[(1R)-3,3-difluorocyclohexane-1-carbonyl]-4-({[2-methoxy-5-(trifluoromethyl)pyridin-3-yl]methyl}amino)-5-phenylpyrrolidine-2-carboxylic acid], the “Maximum % activity (with co-corrector)” value was “+++ (≥350)” and the Emax was greater than 200%. Also, the EC50 under setting [1] lay in the range of 1 to 10 µM. Further, under setting [2], the EC50 is less than 1 µM.

For `COc1ccc(C(C)(C)C)cc1CN[C@H]1[C@H](C(C)(C)C)[C@@H](C(=O)O)N(C(=O)[C@H]2CCCCO2)[C@H]1c1ccccc1F` [Example 50, (2S,3S,4S,5S)-3-tert-butyl-4-{[(5-tert-butyl-2-methoxyphenyl)methyl]amino}-5-(2-fluorophenyl)-1-[(2R)-oxane-2-carbonyl]pyrrolidine-2-carboxylic acid], the “Maximum % activity (with co-corrector)” value is on record as “+++ (≥350)” and the Emax was 100 to 200%. Also, under setting [1], the half-maximal effective concentration (EC50) lay in the range of 1 to 10 µM. Also, under setting [2], the EC50 lay within 1 to 10 µM.

Take `COc1ccc(C23CC(C2)C3)cc1CN[C@H]1[C@H](C(C)(C)C)[C@@H](C(=O)O)N(C(=O)[C@@H]2CCCCO2)[C@H]1c1cccnc1N(C)C` [Example 51, (2S,3S,4S,5S)-4-({[5-(bicyclo[1.1.1]pentan-1-yl)-2-methoxyphenyl]methyl}amino)-3-tert-butyl-5-[2-(dimethylamino)pyridin-3-yl]-1-[(2S)-oxane-2-carbonyl]pyrrolidine-2-carboxylic acid]: the “Maximum % activity (with co-corrector)” value is reported as “+++ (≥350)” and the Emax was greater than 200%. Moreover, the EC50 under setting [1] was in the range of 1 to 10 µM. The EC50 under setting [2] was less than 1 µM.

For `COc1ccc(C23CC(C2)C3)cc1CN[C@H]1[C@H](C(C)(C)C)[C@@H](C(=O)O)N(C(=O)[C@H]2CCCCO2)[C@H]1c1cccnc1N(C)C` [Example 52, (2S,3S,4S,5S)-4-({[5-(bicyclo[1.1.1]pentan-1-yl)-2-methoxyphenyl]methyl}amino)-3-tert-butyl-5-[2-(dimethylamino)pyridin-3-yl]-1-[(2R)-oxane-2-carbonyl]pyrrolidine-2-carboxylic acid], the “Maximum % activity (with co-corrector)” value is “+++ (≥350)” and the Emax lay within 100 to 200%. For the same compound, the EC50 under setting [1] was 1 to 10 µM. In addition, the EC50 under setting [2] is 1 to 10 µM.

As to `COc1ccc(C(C)(C)C)cc1CN[C@H]1[C@H](C(C)(C)C)[C@@H](C(=O)O)N(C(=O)C2CC(C)(C)OC(C)(C)C2)[C@H]1c1ccccc1` [Example 54, (2S,3S,4S,5S)-3-tert-butyl-4-{[(5-tert-butyl-2-methoxyphenyl)methyl]amino}-5-phenyl-1-(2,2,6,6-tetramethyloxane-4-carbonyl)pyrrolidine-2-carboxylic acid], the “Maximum % activity (with co-corrector)” value is on record as “+++ (≥350)” and the Emax was greater than 200%. Also, the EC50 under setting [1] is 1 to 10 µM. Moreover, the EC50 under setting [2] was less than 1 µM.
